# Experimental data: paper PMC11204507, “Mechanistic Insights into the Neurotoxicity of 2,5-Dimethoxyphenethylamines (2C) and Corresponding N-(2-methoxybenzyl)phenethylamine (NBOMe) Drugs” (Journal of Xenobiotics, 2024)
# Counter-ions that a name gives are not always drawn.
# Legend:
# [1] = test system: serotonergic B65 cells; set-up: method as in doi:10.1007/s11419-020-00527-w; conditions: cited from earlier work
# [2] = test system: MAO-A and MAO-B; conditions: rat model; cited from earlier work
# [3] = test system: differentiated SH-SY5Y cells; set-up: method as in PMID 37631071, PMID 25900438; conditions: same in vitro model; cited from earlier work
# [4] = test system: differentiated SH-SY5Y cells; conditions: same experimental conditions; cited from earlier work
# [5] = test system: differentiated SH-SY5Y cells; set-up: method as in PMID 37631071, PMID 25900438; conditions: same in vitro model; cited from earlier work; remark: listed apart in the source
# [6] = test system: differentiated SH-SY5Y cells; experiment: Neutral red (NR) uptake cytotoxicity assay; format: cell-based, human
# Procedure: The cells were seeded at a density of 25,000 cells/cm^2. To achieve a more mature neuron-like phenotype, SH-SY5Y cells were initially cultured in a complete medium supplemented with RA (10 µM). Subsequently, 3 days post-seeding, TPA (80 nM) was added to each well, and the cells were maintained for another 3 days until use, thus achieving a dopaminergic phenotype. In all the experiments, the cells were used between passages 22 and 28.
# The differentiated SH-SY5Y cells (25,000 cells/cm^2) and primary rat cortical cultures (150,000 cells/cm^2) were seeded onto 96-well plates as previously described.
# Accordingly, 6 days after seeding (differentiated SH-SY5Y cells) or at 8 DIV (primary cultures), the cells were exposed, for 24 h (37 °C, 5% CO2), to different concentrations of the drugs (0–1000 µM). Thus, the tested concentrations ranged from 0 to 1000 µM for 2C-T-2 and 2C-T-4; 0 to 500 µM for 2C-T-7; 0 to 250 µM for 25T2-NBOMe, and 0 to 100 µM for 25T4-NBOMe and 25T7-NBOMe.
# The NR uptake assay is based on the detection of viable cells through the incorporation of the NR dye by the cell’s lysosomes. In brief, after 24 h of exposure to the tested drugs, the differentiated SH-SY5Y cells and primary rat cortical cultures were incubated with NR (50 µg/mL in complete medium) for 90 or 210 min, respectively, at 37 °C, in a 5% CO2-95% air atmosphere. To extract the absorbed dye, an acidified ethanol solution was used, and the absorbance was then measured at 540 nm in a multi-well plate reader (PowerWaveX, BioTek Instruments, Winooski, VT, USA). The cytotoxicity was estimated by the percentage of NR uptake relative to the control cells, and a minimum of 4 independent experiments were conducted in triplicate.
# [7] = test system: differentiated SH-SY5Y cells; experiment: Total glutathione (tGSH) levels, DTNB-GSH recycling assay; format: cell-based, human; conditions: 100 μM, 24 h; control 100.0%
# Description: Glutathione has a critical role in cellular physiology, playing multiple essential roles in maintaining cellular health and function, including antioxidant defense, detoxification, and cellular signaling. The 5,5′-dithiobis(2-nitrobenzoic acid) (DTNB)-GSH recycling assay was used to measure total GSH (tGSH), which includes the reduced (GSH) and oxidized (GSSG) forms of glutathione. The assay relies on the reaction of GSH with DTNB, producing the yellow-colored 5-thio-2-nitrobenzoic acid (TNB). Thus, the TNB generated is directly proportional to the amount of GSH present in the sample [31].
# Thus, the SH-SY5Y cells were seeded onto 6-well plates (25,000 cells/cm^2) following the previously described seeding and differentiation protocol. On the day of the experiment, the cells were exposed to different concentrations of the tested drugs (EC20 and EC50) for 24 h (37 °C, 5% CO2). At the end of the incubation period, the cells were centrifuged (5 min, 250 g, 4 °C). For the analysis of extracellular GSH levels, the supernatants were collected, and proteins precipitated with 30% HClO4 for at least 30 min (4 °C). For the analysis of intracellular GSH levels, after collecting the supernatants, the cells were treated with 5% HClO4 for at least 30 min (4 °C). Subsequently, the acidic samples were collected from the plates and centrifuged (5 min, 16,000× g, 4 °C), and the supernatants were stored until further analysis (−80 °C). To assess protein content, the pellets were resuspended in 1M NaOH, maintained at 4 °C overnight, and stored until further analysis (−20 °C). A Bio-Rad DC™ protein assay kit (Bio-Rad Laboratories, Hercules, CA, USA) was used to analyze protein content, in accordance with the manufacturer’s guidelines.
# Before the tGSH quantification, the acidic samples were diluted (1:2) with 5% HClO4, and the diluted samples/standards were neutralized with an ice-cold KHCO3 solution (1:1) and centrifuged (5 min, 16,000× g, 4 °C).
# Then, 100 µL of supernatant from each sample/standard was transferred into a 96-well plate and 65 µL of an extemporaneous reagent solution (0.68 mM NADPH and 3.96 mM DTNB prepared in a 7.5 pH phosphate buffer) was added to each well, and the plates were incubated for 15 min at 30 °C. After 15 min, 40 μL of a 10 U/mL glutathione reductase solution was added to each well and the formation of 5-thio-2-nitrobenzoic acid (TNB) was monitored every 10 s for 3 min (kinetic mode) at 415 nm in a multi-well plate reader (PowerWaveX, BioTek Instruments, Winooski, VT, USA).
# The GSH levels were standardized to protein content. The results are presented as a percentage relative to the control cells (0 µM). A minimum of 6 independent experiments were conducted, in duplicate.
# Glutamate/cysteine ligase (GCL), also recognized as gamma-glutamylcysteine synthetase (γ-GCS), is a key enzyme in the first step of glutathione biosynthesis, as it catalyzes the reaction between glutamate and cysteine to produce γ-glutamylcysteine. […] The SH-SY5Y cells were seeded onto 6-well plates (25,000 cells/cm^2) following the previously described seeding and differentiation protocol. On the day of the experiment, the cells were incubated with BSO (100 µM) for 24 h (37 °C, 5% CO2) and the quantification of GSH intracellular levels was achieved according to the previously described method in Section 2.11.
# [8] = set-up: method as in earlier work; conditions: reported CHI values of the calibration set; cited from earlier work
# [9] = test system: differentiated SH-SY5Y cells; experiment: Mitochondrial membrane potential, JC-1 dye; format: cell-based, human; conditions: positive control, 100 µM, 2 h
# Description: Mitochondrial membrane potential (ΔΨm) is a valuable parameter that reflects the energy status and functional integrity of cells, and the JC-1 dye is widely used as an indicator of ΔΨm. In healthy cells with high ΔΨm, JC-1 forms J-aggregates that emit red fluorescence. In apoptotic or unhealthy cells with low ΔΨm, JC-1 remains in its monomeric form and emits green fluorescence. The ratio of red to green fluorescence intensity is proportional to the degree of polarization of the mitochondrial membrane (a higher ratio indicates a more polarized membrane).
# Thus, the SH-SY5Y cells were seeded onto 24-well plates (25,000 cells/cm^2) following the previously described seeding and differentiation protocol. On the day of the experiment, the cells were exposed to different concentrations of the tested drugs (EC20 and EC50) for 24 h (37 °C, 5% CO2). CCCP (100 µM, 2 h) was used as a positive control for mitochondrial membrane depolarization. At the end of the incubation period, the medium was removed, and the cells were incubated, for 30 min, with 10 µM JC-1 under light protection (37 °C, 5% CO2). Subsequently, the plates were centrifuged (5 min, 300× g, room temperature), the supernatants were rejected, and the cells were washed 2 times with warm HBSS with calcium and magnesium. Fluorescence was recorded at the wavelengths of 485 nm excitation and 535 nm emission for JC-1 monomers and 535 nm excitation and 595 nm emission wavelengths for J-aggregates in a multi-well plate reader (PowerWaveX, BioTek Instruments, Winooski, VT, USA). The results are presented as the percentage of JC-1 red/green fluorescence ratio relative to the control cells, and a minimum of 5 independent experiments were conducted in triplicate.
Compound,ROS production [3],tGSH content [5],CHI0 pH 2.3 [8],also measured
"COc1cc(CCN)c(OC)cc1Cl [2C-C, reference compound]",,,,mitochondrial production of ROS [1]: no significant alterations
COc1cc(CCN)c(OC)cc1C [2C-D],,,,deamination by MAO-A and MAO-B [2]: both isoenzymes can catalyze the deamination
CCc1cc(OC)c(CCN)cc1OC [2C-E],,,,deamination by MAO-A and MAO-B [2]: both isoenzymes can catalyze the deamination
COc1cc([N+](=O)[O-])c(OC)cc1CCN [2C-N],no ROS production,significant decrease in the tGSH content,,drug-induced cytotoxicity upon MAO inhibition [4]: significant increase in the drug-induced cytotoxicity was observed upon MAO inhibition
COc1cc(CCNCc2ccccc2OC)c(OC)cc1Cl [25C-NBOMe],no ROS production,significant decrease in the tGSH content,,
COc1cc([N+](=O)[O-])c(OC)cc1CCNCc1ccccc1OC [25N-NBOMe],,,,drug-induced cytotoxicity upon MAO inhibition [4]: significant increase in the drug-induced cytotoxicity was observed upon MAO inhibition
"CCCCS(=N)(=O)CCC(N)C(=O)O [BSO, L-buthionine sulfoximine, reference compound]",,,,"cytotoxicity, NR uptake ([6]; 100 μM, 24 h (Figure S2: + 50 μM for an additional 24 h)): No significant cytotoxic effects; GSH intracellular levels, % of control cells [7]: 9.2%"
c1ccc(CN2CCNCC2)cc1 [BZP],no ROS production,significant decrease in the tGSH content,,
c1ccc2[nH]cnc2c1 [Benzimidazole],,,6.3,
CCCC(=O)c1ccccc1 [Butyrophenone],,,87.3,
"N#CC(C#N)=NNc1cccc(Cl)c1 [CCCP, carbonyl cyanide 3-chlorophenylhydrazone, reference compound]",,,,"mitochondrial membrane polarization (JC-1 red/green ratio), % of the control cells [9]: 56.3%"
"Cn1c(=O)c2c(ncn2C)n(C)c1=O [Caffeine, caffeine]",,,23.41,
NC(=O)N1c2ccccc2C=Cc2ccccc21 [Carbamazepine],,,60.42,
COc1cc2c(c(OC)c1OC)-c1ccc(OC)c(=O)cc1[C@@H](NC(C)=O)CC2 [Colchicine],,,43.9,
c1ccc2[nH]ccc2c1 [Indole],,,72.1,
c1cc2c(cc1CN1CCNCC1)OCO2 [MDBP],no ROS production,significant decrease in the tGSH content,,
COc1ccc(N2CCNCC2)cc1 [MeOPP],no ROS production,significant decrease in the tGSH content,,
CC(=O)Nc1ccc(O)cc1 [Paracetamol],,,18.77,
CCC(=O)c1ccccc1 [Propiophenone],,,77.4,
FC(F)(F)c1cccc(N2CCNCC2)c1 [TFMPP],no ROS production,significant decrease in the tGSH content,,
"Cn1c(=O)c2[nH]cnc2n(C)c1=O [Theophyline, theophylline]",,,17.9,
"C#CCN(C)CCCOc1ccc(Cl)cc1Cl [clorgyline, reference compound]",,,,"cytotoxicity, NR uptake ([6]; 1 μM, 24 h of exposure): Neither clorgyline nor rasagiline (1 μM) showed significant cytotoxicity"
COc1ccccc1CNCCc1cc(OC)c(OC)c(OC)c1 [mescaline-NBOMe],no ROS production,significant decrease in the tGSH content,,drug-induced cytotoxicity upon MAO inhibition [4]: significant increase in the drug-induced cytotoxicity was observed upon MAO inhibition
COc1cc(CCN)cc(OC)c1OC [mescaline],no ROS production,significant decrease in the tGSH content,,drug-induced cytotoxicity upon MAO inhibition [4]: significant increase in the drug-induced cytotoxicity was observed upon MAO inhibition
"C#CCN[C@@H]1CCc2ccccc21 [rasagiline, rasagiline mesylate, reference compound]",,,,"cytotoxicity, NR uptake ([6]; 1 μM, 24 h of exposure): Neither clorgyline nor rasagiline (1 μM) showed significant cytotoxicity"
